Measurements reported in ChEMBL document CHEMBL6115011, “Optimizing biofilm inhibitors: Balancing activity and toxicity in 2N-aminated 5-aryl-2-aminoimidazoles” (Bioorg Med Chem, 2025).

Experiments:
[1] = Cytotoxicity against human PBMC cells assessed as survival rate at 25 uM measured after 72 hrs by trypan blue staining based assay (reference value: 94.0%); assay type: toxicity, cell-based; conditions: read-out: Survival
[2] = Genotoxicity in human CAPAN-1 cells at 100 to 400 uM measured after 3 hrs by Western blot analysis; assay type: toxicity, cell-based; conditions: capan-1, 3 h, dose 100-400 µM
Staphylococcus aureus [3] = test: Inhibition of biofilm formation in methicillin-resistant Staphylococcus aureus at 25 degree C measured after 48 hrs by crystal violet staining based analysis; assay type: functional, organism-based
[4] = system: Staphylococcus epidermidis; test: Antibacterial activity against Staphylococcus epidermidis at 25 degree C measured after 48 hrs by crystal violet staining based microplate reader analysis; assay type: functional, organism-based
[5] = Cytotoxicity against human PBMC cells assessed as survival rate at 400 uM measured after 72 hrs by trypan blue staining based assay relative to control; assay type: toxicity, cell-based; conditions: read-out: Survival
Escherichia coli [6] = test: Antibacterial activity against Escherichia coli TG1 at 25 degree C measured after 24 hrs by crystal violet staining based microplate reader analysis; assay type: functional, organism-based; conditions: TG1, 24 h
[7] = system: Staphylococcus epidermidis; test: Inhibition of biofilm formation in Staphylococcus epidermidis at 25 degree C measured after 48 hrs by crystal violet staining based analysis; assay type: functional, organism-based
Pseudomonas aeruginosa [8] = test: Inhibition of biofilm formation in Pseudomonas aeruginosa PA14 at 25 degree C measured after 24 hrs by crystal violet staining based analysis; assay type: functional, organism-based; conditions: PA14, 24 h
Pseudomonas aeruginosa [9] = test: Antibacterial activity against Pseudomonas aeruginosa PA14 at 25 degree C measured after 24 hrs by crystal violet staining based microplate reader analysis; assay type: functional, organism-based; conditions: PA14, 24 h
Staphylococcus aureus [10] = test: Antibacterial activity against methicillin-resistant Staphylococcus aureus at 25 degree C measured after 48 hrs by crystal violet staining based microplate reader analysis; assay type: functional, organism-based
Escherichia coli [11] = test: Inhibition of biofilm formation in Escherichia coli TG1 at 25 degree C measured after 24 hrs by crystal violet staining based microplate reader analysis; assay type: functional, organism-based; conditions: TG1, 24 h
[12] = Cytotoxicity against human PBMC cells assessed as survival rate at 100 uM measured after 72 hrs by trypan blue staining based assay relative to control; assay type: toxicity, cell-based; conditions: read-out: Survival
Staphylococcus aureus [13] = test: Antibacterial activity against Staphylococcus aureus SH1000 at 25 degree C measured after 48 hrs by crystal violet staining based microplate reader analysis; assay type: functional, organism-based; conditions: SH1000, 48 h
Staphylococcus aureus [14] = test: Inhibition of biofilm formation in Staphylococcus aureus SH1000 at 25 degree C measured after 48 hrs by crystal violet staining based analysis; assay type: functional, organism-based; conditions: SH1000, 48 h

Question: For `NCCCCCCNc1ncc(-c2ccccc2)[nH]1`, which viability at 72 h, 25 µM [1] is on record?
Answer: The viability at 72 h, 25 µM was 78.6%.

Question: And the Activity [2]?
Answer: The Activity was “Non-toxic”.

Question: And the IC50 (Staphylococcus aureus [3])?
Answer: The IC50 was 62.7 µM.

Question: And the IC50 [4]?
Answer: The IC50 was 164 µM.

Question: And the viability at 72 h, 400 µM [5]?
Answer: The viability at 72 h, 400 µM was 2.9%.

Question: And the IC50 (Escherichia coli [6])?
Answer: The IC50 was 55.3 µM.

Question: And the IC50 [7]?
Answer: The IC50 was 29.2 µM.

Question: And the IC50 (Pseudomonas aeruginosa [8])?
Answer: The IC50 was 23.4 µM.

Question: What about the IC50 (Pseudomonas aeruginosa [9]) of the same compound?
Answer: The IC50 was 73.4 µM.

Question: And the IC50 (Staphylococcus aureus [10])?
Answer: The IC50 was 206 µM.

Question: And the IC50 (Escherichia coli [11])?
Answer: Its IC50 is 26.5 µM.

Question: What about the viability at 72 h, 100 µM [12] of the same compound?
Answer: The viability at 72 h, 100 µM was 12.9%.

Question: And the IC50 (Staphylococcus aureus [13])?
Answer: Its IC50 is 186 µM.

Question: And the IC50 (Staphylococcus aureus [14])?
Answer: The IC50 was 95.6 µM.
